Measurements: patent US20120270237A9, “METHODS FOR THE IDENTIFICATION OF KINASE INTERACTING MOLECULES AND FOR THE PURIFICATION OF KINASE PROTEINS” (Cellzone AG, priority 2009, published 2012)

Legend:
Assay in all cases: Kinobeads competition binding, HL60 cell lysate
Conditions in all cases: 10 μM free compound
PIP5K2A = target: T1, PIP5K2A (Homo sapiens, UniProt P48426); parameters: endogenous in cells
T1 sequence (P48426 1-406): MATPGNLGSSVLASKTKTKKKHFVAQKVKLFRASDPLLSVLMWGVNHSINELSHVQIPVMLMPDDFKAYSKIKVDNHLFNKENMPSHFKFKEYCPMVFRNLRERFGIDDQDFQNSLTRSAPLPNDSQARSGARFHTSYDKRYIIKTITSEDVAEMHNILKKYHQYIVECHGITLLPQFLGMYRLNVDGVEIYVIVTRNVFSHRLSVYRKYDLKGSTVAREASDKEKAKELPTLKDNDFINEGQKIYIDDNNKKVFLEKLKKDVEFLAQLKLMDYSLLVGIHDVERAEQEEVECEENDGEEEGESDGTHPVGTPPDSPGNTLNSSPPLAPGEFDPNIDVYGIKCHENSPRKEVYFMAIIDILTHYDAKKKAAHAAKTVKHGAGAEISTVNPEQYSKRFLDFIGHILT
Experimental: (§1) To one aliquot of cell lysate 10 μM of the free compound (FIG. 3, CZC31326) was added and allowed to bind to proteins in the lysate. Then the affinity matrix with the immobilized compound (Example 1) was added to capture proteins that were not interacting with the previously added free compound. Beads were separated from the lysate and bead bound proteins were eluted in SDS sample buffer and subsequently separated by SDS-Polyacrylamide gel electrophoresis (FIG. 4). Suitable gel bands were cut out and subjected to in-gel proteolytic digestion with trypsin. The second lysate aliquot was processed identically, however no free compound was added (DMSO solvent control). Peptides originating from samples 1 and 2 were labeled with iTRAQ reagents (iTRAQ 114 and iTRAQ 117) and the combined samples were analyzed with a nano-flow liquid chromatography system coupled online to a tandem mass spectrometer (LC-MS/MS) experiment followed by iTRAQ reporter ion quantification in the MS/MS spectra (Ross et al., 2004. Mol. Cell. Proteomics 3(12):1154-1169). Further experimental protocols can be found in WO2006/134056 and a previous publication (Bantscheff et al., 2007. Nature Biotechnology 25, 1035-1044). Sepharose-beads with the immobilized compound (100 μl beads per pull-down experiment) were equilibrated in lysis buffer and incubated with a cell lysate sample containing 50 mg of protein on an end-over-end shaker (Roto Shake Genie, Scientific Industries Inc.) for 2 hours at 4° C. Beads were collected, transferred to Mobicol-columns (MoBiTech 10055) and washed with 10 ml lysis buffer containing 0.4% NP40 detergent, followed by 5 ml lysis buffer containing 0.2% detergent. To elute bound proteins, 60 μl 2×SDS sample buffer was added to the column. The column was incubated for 30 minutes at 50° C. and the eluate was transferred to a siliconized microfuge tube by centrifugation. Proteins were then alkylated with 108 mM iodoacetamid. Proteins were then separated by SDS-Polyacrylamide electrophoresis (SDS-PAGE). The peptide extracts of samples treated with 10 μM of free compound (CZC31326) and the solvent control (0.5% DMSO) were treated with different variants of the isobaric tagging reagent (iTRAQ Reagents Multiplex Kit, part number 4352135, Applied Biosystems, Foster City, Calif., USA). The iTRAQ reagents are a set of multiplexed, amine-specific, stable isotope reagents that can label peptides on amino groups in up to four different biological samples enabling simultaneous identification and quantitation of peptides. The iTRAQ reagents were used according to instructions provided by the manufacturer. The samples were resuspended in 10 μl 50 mM TEAB solution, pH 8.5 and 10 μl ethanol were added. The iTRAQ reagent was dissolved in 120 μl ethanol and 10 μl of reagent solution were added to the sample. The labeling reaction was performed at room temperature for one hour on a horizontal shaker and stopped by adding 5 μl of 100 mM TEAB and 100 mM glycine in water. The two labeled sampled were then combined, dried in a vacuum centrifuge and resuspended in 10 μl of 0.1% formic acid in water. Relative protein quantitation was performed using peak areas of iTRAQ reporter ion signals essentially as described in an earlier publication (Bantscheff et al., 2007. Nature Biotechnology 25, 1035-1044).

PKD3 = target: T2, PKD3 (Homo sapiens, UniProt O94806); parameters: endogenous in cells
T2 sequence (O94806 1-890): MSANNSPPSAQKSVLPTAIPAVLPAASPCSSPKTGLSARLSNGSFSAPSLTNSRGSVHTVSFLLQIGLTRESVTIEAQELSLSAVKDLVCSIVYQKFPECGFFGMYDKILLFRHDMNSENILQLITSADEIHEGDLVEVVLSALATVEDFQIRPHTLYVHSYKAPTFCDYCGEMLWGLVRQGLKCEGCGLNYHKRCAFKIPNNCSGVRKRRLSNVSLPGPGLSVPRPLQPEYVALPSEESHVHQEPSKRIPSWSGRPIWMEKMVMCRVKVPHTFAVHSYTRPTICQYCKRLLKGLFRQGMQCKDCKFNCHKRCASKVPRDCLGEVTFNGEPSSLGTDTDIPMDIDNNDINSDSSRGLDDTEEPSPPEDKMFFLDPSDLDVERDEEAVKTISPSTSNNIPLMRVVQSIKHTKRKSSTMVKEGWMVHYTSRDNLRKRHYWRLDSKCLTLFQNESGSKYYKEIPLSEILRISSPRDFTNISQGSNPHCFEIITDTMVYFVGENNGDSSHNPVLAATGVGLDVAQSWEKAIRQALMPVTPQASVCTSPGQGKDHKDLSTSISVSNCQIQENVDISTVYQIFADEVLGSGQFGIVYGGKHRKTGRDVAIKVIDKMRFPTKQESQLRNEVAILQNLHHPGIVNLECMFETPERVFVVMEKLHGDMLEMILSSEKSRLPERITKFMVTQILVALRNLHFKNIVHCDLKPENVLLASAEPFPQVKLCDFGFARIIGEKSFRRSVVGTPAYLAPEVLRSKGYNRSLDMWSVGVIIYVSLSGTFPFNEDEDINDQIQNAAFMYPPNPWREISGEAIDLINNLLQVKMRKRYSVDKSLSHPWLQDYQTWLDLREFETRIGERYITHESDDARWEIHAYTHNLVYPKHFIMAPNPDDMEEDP
Experimental: as §1

CaMK2d = CaMK2d (Homo sapiens, UniProt Q13557); parameters: endogenous in cells
Experimental: as §1

MAP2K1 = MAP2K1 (Homo sapiens, UniProt Q02750); parameters: Identified kinases with CZC31326 from HL60 lysate; endogenous in cells; host or cells: HL60
Experimental: as §1, with “The iTRAQ reagents were used according to instructions provided by the manufacturer. The samples were resuspended in 10 μl 50 mM TEAB solution, pH 8.5 and 10 μl ethanol were added. The iTRAQ reagent was dissolved in 120 μl ethanol and 10 μl of reagent solution were added to the sample. The labeling reaction was performed at room temperature for one hour on a horizontal shaker and stopped by adding 5 μl of 100 mM TEAB and 100 mM glycine in water. The two labeled sampled were then combined, dried in a vacuum centrifuge and resuspended in 10 μl of 0.1% formic acid in water.” left out

SYK = SYK (Homo sapiens, UniProt P43405); parameters: capturing and identification of kinases from mixed HeLa placenta lysates; endogenous in cells
Experimental: To one aliquot of cell lysate 10 μM of the free compound (FIG. 3, CZC31326) was added and allowed to bind to proteins in the lysate. Then the affinity matrix with the immobilized compound (Example 1) was added to capture proteins that were not interacting with the previously added free compound. Beads were separated from the lysate and bead bound proteins were eluted in SDS sample buffer and subsequently separated by SDS-Polyacrylamide gel electrophoresis (FIG. 4). Suitable gel bands were cut out and subjected to in-gel proteolytic digestion with trypsin. The second lysate aliquot was processed identically, however no free compound was added (DMSO solvent control). Peptides originating from samples 1 and 2 were labeled with iTRAQ reagents (iTRAQ 114 and iTRAQ 117) and the combined samples were analyzed with a nano-flow liquid chromatography system coupled online to a tandem mass spectrometer (LC-MS/MS) experiment followed by iTRAQ reporter ion quantification in the MS/MS spectra (Ross et al., 2004. Mol. Cell. Proteomics 3(12):1154-1169). […] The iTRAQ reagents are a set of multiplexed, amine-specific, stable isotope reagents that can label peptides on amino groups in up to four different biological samples enabling simultaneous identification and quantitation of peptides. […]

Sequence of MAP2K1 (Q02750 whole entry): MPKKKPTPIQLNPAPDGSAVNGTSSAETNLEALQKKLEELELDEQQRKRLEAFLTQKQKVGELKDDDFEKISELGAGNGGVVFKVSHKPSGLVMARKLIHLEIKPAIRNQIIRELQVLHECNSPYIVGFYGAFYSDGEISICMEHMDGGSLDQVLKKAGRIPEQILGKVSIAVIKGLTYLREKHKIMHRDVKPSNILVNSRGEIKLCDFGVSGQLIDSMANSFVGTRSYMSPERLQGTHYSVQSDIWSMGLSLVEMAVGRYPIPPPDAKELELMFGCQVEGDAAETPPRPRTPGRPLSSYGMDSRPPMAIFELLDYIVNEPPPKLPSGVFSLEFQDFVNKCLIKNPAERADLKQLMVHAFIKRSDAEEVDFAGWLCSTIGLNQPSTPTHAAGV
Sequence of CaMK2d (Q13557 whole entry): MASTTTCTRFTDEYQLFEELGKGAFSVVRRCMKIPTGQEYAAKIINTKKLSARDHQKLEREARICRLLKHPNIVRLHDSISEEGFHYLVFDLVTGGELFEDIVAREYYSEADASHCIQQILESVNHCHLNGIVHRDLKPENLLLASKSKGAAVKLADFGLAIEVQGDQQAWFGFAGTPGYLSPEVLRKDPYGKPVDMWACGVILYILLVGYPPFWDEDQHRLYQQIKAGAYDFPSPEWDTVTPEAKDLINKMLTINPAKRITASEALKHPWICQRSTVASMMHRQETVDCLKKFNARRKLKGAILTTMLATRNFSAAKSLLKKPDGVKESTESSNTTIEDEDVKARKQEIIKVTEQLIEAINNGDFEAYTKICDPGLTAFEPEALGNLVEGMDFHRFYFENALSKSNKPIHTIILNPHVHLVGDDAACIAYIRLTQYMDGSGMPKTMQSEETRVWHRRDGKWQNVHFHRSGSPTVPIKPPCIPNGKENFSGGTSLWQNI

inhibition at 10 µM (PIP5K2A): 97.6%
inhibition at 10 µM (PKD3): 96.9%
inhibition at 10 µM (CaMK2d): 90.4%
inhibition at 10 µM (MAP2K1): 85.2%
Competition % (SYK): 95.6%
SMILES: CS(=O)(=O)Nc1ccccc1Nc1nc(Nc2cccc(OCCN)c2)ncc1Cl [CZC31326, N-(2-(2-(3-(2-aminoethoxy)phenylamino)-5-chloropyrimidin-4-ylamino)phenyl)methanesulfonamide]
